In ChEMBL document CHEMBL1146858 (Bioorg Med Chem Lett, 2006):
pIC50, pKi: −log10 of the molar value.

What was measured:
[1] = Clearance in dog; format: ADME, organism-based, Canis lupus familiaris; details: in vivo
[2] = Oral bioavailability in orally dosed dog; format: ADME, organism-based, Canis lupus familiaris; details: in vivo
Oryctolagus cuniculus [3] = species: Oryctolagus cuniculus; test: cells
Prothrombin = Prothrombin (Homo sapiens, UniProt P00734); test: Binding affinity to human F2a
[4] = target: Coagulation factor VII/tissue factor (Homo sapiens) (UniProt P08709+P13726); test: Anticoagulant activity in plasma by PT assay; format: functional, cell-free
[5] = Volume of distribution in dog; format: ADME, organism-based, Canis lupus familiaris; details: in vivo, read-out: Vdss
Coagulation factor X = Coagulation factor X (Homo sapiens, UniProt P00742); test: Binding affinity to human F10a
[6] = Apparent permeability in Caco-2 cells; format: ADME, cell-based; details: human
[7] = Half life in orally dosed dog; format: ADME, organism-based, Canis lupus familiaris; details: in vivo, po
[8] = Protein binding in plasma by equilibrium dialysis assay; format: ADME, cell-free; details: read-out: PPB (converted)
[9] = target: Vitamin K-dependent protein C (Homo sapiens, UniProt P04070); test: Binding affinity to human APC
Plasminogen = Plasminogen (Homo sapiens, UniProt P00747); test: Binding affinity to human plasmin
Chymotrypsinogen B = Chymotrypsinogen B (Homo sapiens, UniProt P17538); test: Binding affinity to human chymotrypsin
Coagulation factor IX = Coagulation factor IX (Homo sapiens, UniProt P00740); test: Binding affinity to human f9a
[10] = target: Tissue-type plasminogen activator (Homo sapiens, UniProt P00750); test: Binding affinity to human tPA
Plasma kallikrein = Plasma kallikrein (Homo sapiens, UniProt P03952); test: Binding affinity to human plasma kallikrein; format: cell-free
Trypsin = Trypsin (Homo sapiens, UniProt P07477+P07478+P35030); test: Binding affinity to human trypsin; format: protein assay
Coagulation factor VII = target: T1, Coagulation factor VII (Homo sapiens, UniProt P08709); test: Binding affinity to human f7a
T1 sequence (P08709 whole entry): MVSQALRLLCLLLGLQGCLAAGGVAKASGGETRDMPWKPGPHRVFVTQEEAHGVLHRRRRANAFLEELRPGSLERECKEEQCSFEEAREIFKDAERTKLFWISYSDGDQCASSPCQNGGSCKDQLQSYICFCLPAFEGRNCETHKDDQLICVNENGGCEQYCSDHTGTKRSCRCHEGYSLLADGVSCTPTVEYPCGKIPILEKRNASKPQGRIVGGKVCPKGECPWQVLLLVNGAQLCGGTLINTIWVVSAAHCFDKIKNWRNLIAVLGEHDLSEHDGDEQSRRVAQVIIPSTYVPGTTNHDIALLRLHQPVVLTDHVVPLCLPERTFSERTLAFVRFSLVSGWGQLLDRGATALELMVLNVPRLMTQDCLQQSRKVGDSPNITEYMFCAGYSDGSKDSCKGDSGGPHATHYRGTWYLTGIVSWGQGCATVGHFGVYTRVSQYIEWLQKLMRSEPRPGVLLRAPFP

Oryctolagus cuniculus [11] = species: Oryctolagus cuniculus

Coagulation factor X, sequence (P00742 41-179 limits assumed): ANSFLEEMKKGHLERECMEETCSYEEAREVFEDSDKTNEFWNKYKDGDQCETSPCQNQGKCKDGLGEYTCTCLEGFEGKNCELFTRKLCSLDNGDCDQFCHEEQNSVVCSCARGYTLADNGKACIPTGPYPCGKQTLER
Coagulation factor X, sequence (P00742 235-488 limits assumed): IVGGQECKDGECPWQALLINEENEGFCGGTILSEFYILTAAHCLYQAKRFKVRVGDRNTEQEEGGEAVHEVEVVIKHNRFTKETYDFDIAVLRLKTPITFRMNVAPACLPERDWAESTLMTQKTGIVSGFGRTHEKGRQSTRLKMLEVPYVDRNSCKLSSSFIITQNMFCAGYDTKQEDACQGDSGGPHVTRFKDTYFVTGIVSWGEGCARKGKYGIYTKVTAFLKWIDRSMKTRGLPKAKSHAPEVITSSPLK
Vitamin K-dependent protein C, sequence (P04070 43-197 limits assumed): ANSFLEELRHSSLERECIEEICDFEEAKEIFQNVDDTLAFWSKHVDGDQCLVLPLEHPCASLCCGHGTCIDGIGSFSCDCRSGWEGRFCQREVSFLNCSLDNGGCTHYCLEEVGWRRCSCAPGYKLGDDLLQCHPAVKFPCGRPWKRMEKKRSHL
Vitamin K-dependent protein C, sequence (P04070 212-461 limits assumed): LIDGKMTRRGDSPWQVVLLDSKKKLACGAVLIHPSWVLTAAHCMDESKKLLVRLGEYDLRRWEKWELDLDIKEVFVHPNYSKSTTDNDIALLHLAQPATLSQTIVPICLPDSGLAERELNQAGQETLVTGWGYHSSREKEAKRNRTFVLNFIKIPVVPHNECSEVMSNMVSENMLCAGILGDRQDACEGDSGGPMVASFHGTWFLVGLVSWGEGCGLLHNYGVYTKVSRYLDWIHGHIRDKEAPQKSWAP
Plasminogen, sequence (P00747 97-580 limits assumed): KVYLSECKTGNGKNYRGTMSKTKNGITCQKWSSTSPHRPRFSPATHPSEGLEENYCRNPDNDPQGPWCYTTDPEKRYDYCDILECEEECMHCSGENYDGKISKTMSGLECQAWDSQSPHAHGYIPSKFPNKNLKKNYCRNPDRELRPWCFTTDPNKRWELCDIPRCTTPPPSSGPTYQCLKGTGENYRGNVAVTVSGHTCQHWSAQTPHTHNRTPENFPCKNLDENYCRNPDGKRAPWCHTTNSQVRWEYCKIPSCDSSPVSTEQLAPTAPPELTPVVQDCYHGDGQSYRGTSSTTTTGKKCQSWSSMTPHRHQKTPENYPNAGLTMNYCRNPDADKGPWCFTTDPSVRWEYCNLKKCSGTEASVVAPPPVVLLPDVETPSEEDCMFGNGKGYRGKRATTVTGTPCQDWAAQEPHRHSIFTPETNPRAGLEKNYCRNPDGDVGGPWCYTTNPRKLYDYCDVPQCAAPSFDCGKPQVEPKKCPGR
Plasminogen, sequence (P00747 581-810 limits assumed): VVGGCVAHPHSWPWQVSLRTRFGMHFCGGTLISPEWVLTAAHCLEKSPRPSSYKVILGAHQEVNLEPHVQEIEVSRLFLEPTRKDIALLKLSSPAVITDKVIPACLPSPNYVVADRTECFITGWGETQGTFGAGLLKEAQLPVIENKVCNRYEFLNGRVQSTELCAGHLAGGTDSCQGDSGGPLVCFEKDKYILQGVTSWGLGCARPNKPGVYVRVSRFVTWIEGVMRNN
Chymotrypsinogen B, sequence (P17538 34-164 limits assumed, other chains not shown): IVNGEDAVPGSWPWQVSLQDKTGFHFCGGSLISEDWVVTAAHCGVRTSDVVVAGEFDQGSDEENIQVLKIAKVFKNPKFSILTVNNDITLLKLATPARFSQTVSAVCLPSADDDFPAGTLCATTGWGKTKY
Chymotrypsinogen B, sequence (P17538 167-263 limits assumed, other chains not shown): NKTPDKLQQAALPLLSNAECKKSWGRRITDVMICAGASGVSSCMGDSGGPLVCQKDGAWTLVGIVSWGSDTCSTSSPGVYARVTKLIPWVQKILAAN
Tissue-type plasminogen activator, sequence (P00750 whole entry): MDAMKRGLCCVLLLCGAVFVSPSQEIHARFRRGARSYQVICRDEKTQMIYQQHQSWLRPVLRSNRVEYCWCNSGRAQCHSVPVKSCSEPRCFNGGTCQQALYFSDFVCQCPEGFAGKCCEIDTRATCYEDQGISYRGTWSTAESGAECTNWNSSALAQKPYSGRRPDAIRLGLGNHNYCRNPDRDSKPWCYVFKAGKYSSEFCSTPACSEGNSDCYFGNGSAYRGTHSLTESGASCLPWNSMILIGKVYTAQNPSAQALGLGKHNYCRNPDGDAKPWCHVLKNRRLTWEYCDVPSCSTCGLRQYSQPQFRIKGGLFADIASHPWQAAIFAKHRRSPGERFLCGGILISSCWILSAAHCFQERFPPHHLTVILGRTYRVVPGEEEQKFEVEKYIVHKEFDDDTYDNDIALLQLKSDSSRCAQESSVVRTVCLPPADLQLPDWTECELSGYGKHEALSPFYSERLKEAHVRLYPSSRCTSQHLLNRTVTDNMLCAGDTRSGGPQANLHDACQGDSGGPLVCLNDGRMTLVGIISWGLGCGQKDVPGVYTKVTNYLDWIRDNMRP
Coagulation factor IX, sequence (P00740 47-191 limits assumed): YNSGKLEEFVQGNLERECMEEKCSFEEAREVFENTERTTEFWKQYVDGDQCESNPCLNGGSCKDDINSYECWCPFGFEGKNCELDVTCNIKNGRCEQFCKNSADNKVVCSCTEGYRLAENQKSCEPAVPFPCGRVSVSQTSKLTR
Coagulation factor IX, sequence (P00740 227-461 limits assumed): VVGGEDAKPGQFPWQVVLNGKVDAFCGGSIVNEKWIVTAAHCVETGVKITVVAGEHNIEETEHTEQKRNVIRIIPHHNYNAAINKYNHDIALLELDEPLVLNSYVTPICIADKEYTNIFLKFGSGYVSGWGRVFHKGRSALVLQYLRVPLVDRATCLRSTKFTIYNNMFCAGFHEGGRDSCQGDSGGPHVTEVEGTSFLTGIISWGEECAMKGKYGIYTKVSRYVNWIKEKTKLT
Plasma kallikrein, sequence (P03952 20-390 limits assumed): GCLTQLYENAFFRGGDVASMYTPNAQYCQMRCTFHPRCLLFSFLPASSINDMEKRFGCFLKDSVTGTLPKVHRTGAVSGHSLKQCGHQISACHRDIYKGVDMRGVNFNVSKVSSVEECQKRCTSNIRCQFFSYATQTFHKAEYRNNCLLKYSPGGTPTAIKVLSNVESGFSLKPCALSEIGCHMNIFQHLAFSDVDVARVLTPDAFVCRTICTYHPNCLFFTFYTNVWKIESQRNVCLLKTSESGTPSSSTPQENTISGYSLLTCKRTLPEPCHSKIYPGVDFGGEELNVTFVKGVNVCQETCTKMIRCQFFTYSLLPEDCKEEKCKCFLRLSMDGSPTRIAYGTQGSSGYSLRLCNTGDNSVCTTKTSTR
Plasma kallikrein, sequence (P03952 391-638 limits assumed): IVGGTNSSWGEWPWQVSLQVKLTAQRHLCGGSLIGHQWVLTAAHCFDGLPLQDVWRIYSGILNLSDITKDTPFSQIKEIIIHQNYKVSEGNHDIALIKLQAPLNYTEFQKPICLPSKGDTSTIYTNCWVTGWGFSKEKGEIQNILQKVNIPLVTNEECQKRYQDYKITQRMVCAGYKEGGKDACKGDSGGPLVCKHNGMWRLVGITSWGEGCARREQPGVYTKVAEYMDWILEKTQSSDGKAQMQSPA

Compound	clearance [1]	bioavailability [2]	pKi (Prothrombin)	2PT [4]	Vd [5]	pKi (Coagulation factor X)	half-life [7]	other results
Nc1noc2ccc(-n3nc(C(F)(F)F)c4c3C(=O)N(c3ccc(-c5ccccc5CN5CCC(O)CC5)cc3)CC4)cc12	3.5 mL/min/kg	102%	7.15	4.9 µM	1.4 L/kg	9.66	6.4 h	pIC50 (Oryctolagus cuniculus [3]): 6.29; Papp [6]: 0.4 ×10⁻⁶ cm/s
CN1CCN(Cc2ccccc2-c2ccc(N3CCc4c(C(F)(F)F)nn(-c5ccc6onc(N)c6c5)c4C3=O)cc2)CC1	–	–	6.64	31 µM	–	9.15	–	–
CN(C)Cc1ccccc1-c1ccc(N2CCc3c(C(F)(F)F)nn(-c4ccc5onc(N)c5c4)c3C2=O)c(F)c1	17.5 mL/min/kg	83%	7.12	5.6 µM	8.8 L/kg	9.89	6.4 h	pIC50 (Oryctolagus cuniculus [3]): 6.22; fraction unbound [8]: < 0.02; Papp [6]: 8.9 ×10⁻⁶ cm/s
CN(C)Cc1ccccc1-c1ccc(N2CCCc3c(C(F)(F)F)nn(-c4ccc5onc(N)c5c4)c3C2=O)c(F)c1	–	–	–	8.5 µM	–	9.07	–	–
CN(C)Cc1nccn1-c1ccc(NC(=O)c2cc(C(F)(F)F)nn2-c2ccc3onc(N)c3c2)c(F)c1 [RAZAXABAN]	–	–	–	2.1 µM	–	–	–	pKi [9]: < 5.64
Nc1noc2ccc(-n3nc(C(F)(F)F)c4c3C(=O)N(c3ccc(-c5ccccc5CN5CCCC5)cc3)CC4)cc12	16.8 mL/min/kg	37%	7.24	3.2 µM	5 L/kg	9.82	5.3 h	–
Cc1nn(-c2ccc3onc(N)c3c2)c2c1CCN(c1ccc(-c3ccccc3CN3CCCC3)cc1)C2=O	31.7 mL/min/kg	10%	6.92	1.4 µM	3.3 L/kg	9.51	1.7 h	–
Nc1noc2ccc(-n3nc(C(F)(F)F)c4c3C(=O)N(c3ccc(-c5ccccc5CN5CC[C@H](O)C5)cc3)CC4)cc12	4.5 mL/min/kg	52%	7.23	4.8 µM	1.12 L/kg	–	4.5 h	–
CCN(C)Cc1ccccc1-c1ccc(N2CCc3c(C(F)(F)F)nn(-c4ccc5onc(N)c5c4)c3C2=O)cc1	–	–	7.24	3.2 µM	–	> 10.00	–	–
Nc1noc2ccc(-n3nc(C(F)(F)F)c4c3C(=O)N(c3ccc(-c5ccccc5CN5CC[C@@H](O)C5)cc3)CC4)cc12	–	82%	7.46	3.6 µM	–	–	–	pKi (Plasminogen): < 5.55; pKi (Chymotrypsinogen B): < 5.55; pKi (Coagulation factor IX): < 5.55; pKi [10]: < 5.55; fraction unbound [8]: 0.026; pKi (Plasma kallikrein): < 5.55; Ki (Trypsin): > 2800 nM; Papp [6]: 1.7 ×10⁻⁶ cm/s; pKi [9]: < 5.55; pKi (Coagulation factor VII): < 5.55
CNCc1ccccc1-c1ccc(N2CCc3c(C(F)(F)F)nn(-c4ccc5onc(N)c5c4)c3C2=O)cc1	27.7 mL/min/kg	67%	6.82	3.7 µM	9.7 L/kg	9.47	7.4 h	–
CCN(CC)Cc1ccccc1-c1ccc(N2CCc3c(C(F)(F)F)nn(-c4ccc5onc(N)c5c4)c3C2=O)cc1	–	–	7.01	3 µM	–	9.96	–	–
CN(C)Cc1ccccc1-c1ccc(N2CC=Cc3c(C(F)(F)F)nn(-c4ccc5onc(N)c5c4)c3C2=O)cc1	–	–	–	6.9 µM	–	9.22	–	–
Cc1nn(-c2ccc3onc(N)c3c2)c2c1CCN(c1ccc(-c3ccccc3CN(C)C)cc1)C2=O	53.3 mL/min/kg	13%	6.42	2.1 µM	6.4 L/kg	9.26	1.6 h	Papp [6]: 6.8 ×10⁻⁶ cm/s
Cc1nn(-c2ccc3onc(N)c3c2)c2c1CCN(c1ccc(-c3ccccc3CN3CC[C@@H](O)C3)cc1)C2=O	7 mL/min/kg	44%	6.89	2.8 µM	0.75 L/kg	9.57	1.7 h	Papp [6]: 6.2 ×10⁻⁶ cm/s; ID50 (Oryctolagus cuniculus [11]): 0.6 ug/hr.kg
CN(C)Cc1ccccc1-c1ccc(NC(=O)c2cc(C(F)(F)F)nn2-c2ccc3onc(N)c3c2)c(F)c1	–	–	–	4.2 µM	–	–	–	–
Nc1noc2ccc(-n3nc(C(F)(F)F)c4c3C(=O)N(c3ccc(-c5ccccc5CN5CCCC5)cc3F)CC4)cc12	13.2 mL/min/kg	85%	–	6.1 µM	4.8 L/kg	9.62	4.9 h	pIC50 (Oryctolagus cuniculus [3]): 6.00; fraction unbound [8]: < 0.02
Nc1noc2ccc(-n3nc(C(F)(F)F)c4c3C(=O)N(c3ccc(-c5ccccc5CN5CC[C@@H](O)C5)cc3F)CC4)cc12	5.83 mL/min/kg	81%	7.14	8.4 µM	2.8 L/kg	9.80	5.9 h	pIC50 (Oryctolagus cuniculus [3]): 6.22; fraction unbound [8]: < 0.02; Papp [6]: 13 ×10⁻⁶ cm/s
CN(C)Cc1ccccc1-c1ccc(N2CC=Cc3c(C(F)(F)F)nn(-c4ccc5onc(N)c5c4)c3C2=O)c(F)c1	–	–	–	15 µM	–	9.22	–	–
Nc1noc2ccc(-n3nc(C(F)(F)F)c4c3C(=O)N(c3ccc(-c5ccccc5CN5CCOCC5)cc3)CC4)cc12	–	–	6.89	41 µM	–	9.46	–	–
CN(C)Cc1ccccc1-c1ccc(N2CCc3c(C(F)(F)F)nn(-c4ccc5onc(N)c5c4)c3C2=O)cc1	16.3 mL/min/kg	50%	7.37	2.7 µM	4.5 L/kg	10.40	3.8 h	pIC50 (Oryctolagus cuniculus [3]): 6.65; Papp [6]: 4.7 ×10⁻⁶ cm/s
CN(C)Cc1ccccc1-c1ccc(N2CNc3c(C(F)(F)F)nn(-c4ccc5onc(N)c5c4)c3C2=O)cc1	–	–	–	1.4 µM	–	9.60	–	–
CN(C)Cc1ccccc1-c1ccc(N2CCCc3c(C(F)(F)F)nn(-c4ccc5onc(N)c5c4)c3C2=O)cc1	–	–	–	4 µM	–	9.09	–	–
Nc1noc2ccc(-n3nc(C(F)(F)F)c4c3C(=O)N(c3ccc(-c5ccccc5CN5CCNCC5)cc3)CC4)cc12	–	–	6.55	14 µM	–	9.19	–	–
Cc1nn(-c2ccc3onc(N)c3c2)c2c1CCN(c1ccc(-c3ccccc3CN3CC[C@@H](O)C3)cc1F)C2=O	15.7 mL/min/kg	62%	6.60	4.9 µM	1.1 L/kg	9.47	1.1 h	–
